{
  "source": "patent US20230220443A1",
  "about": "“CHARACTERIZATION OF S-ADENOSYL-L-METHIONINE-CONSUMING ENZYMES WITH 1-STEP EZ-MTASE: A UNIVERSAL COUPLED-ASSAY” (ALBERT EINSTEIN COLLEGE OF MEDICINE, priority 2017, published 2023)",
  "molecular_target": "T1, deaminase TM0936 (Thermotoga maritima, UniProt Q9X034)",
  "T1 construct": "polyhistidine; made in house; host or cells: bacteria",
  "T1 sequence (Q9X034 1-406)": "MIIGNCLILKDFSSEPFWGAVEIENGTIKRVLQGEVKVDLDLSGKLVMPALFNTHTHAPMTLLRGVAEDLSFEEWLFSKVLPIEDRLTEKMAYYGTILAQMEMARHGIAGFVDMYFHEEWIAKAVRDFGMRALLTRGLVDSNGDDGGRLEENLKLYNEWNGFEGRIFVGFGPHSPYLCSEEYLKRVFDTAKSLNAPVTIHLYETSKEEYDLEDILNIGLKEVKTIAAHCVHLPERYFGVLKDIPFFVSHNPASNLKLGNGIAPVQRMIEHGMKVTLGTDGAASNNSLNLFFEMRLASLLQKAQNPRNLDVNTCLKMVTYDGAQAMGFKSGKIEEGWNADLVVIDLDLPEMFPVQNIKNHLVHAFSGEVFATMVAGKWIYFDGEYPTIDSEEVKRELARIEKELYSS",
  "assay": "Deamination by coupling enzyme TM0936",
  "type": "biochemical",
  "procedure": "FIG. 9A-9D. Sinefungin is a positive control compatible with the 1-Step EZ-MTase assay. (A) MTAN-based assays catabolize the methyltransferase inhibitor sinefungin (SIN). […] (C) pH-dependence of the reaction between sinefungin and TM0936. […] (D) Inhibition of the sarcosine/dimethylglycine methyltransferase by sinefungin. […] The initial methyltransfer rates were recorded at 263 nm. Further analysis provided the inhibition constant Ki (1.8±0.4 μM).",
  "note": "Entries after “also recorded” stand apart in the source; their conditions may differ.",
  "data": [
    {"smiles": "C[S+](CC[C@H](N)C(=O)O)C[C@H]1O[C@@H](n2cnc3c(N)ncnc32)[C@H](O)[C@@H]1O", "note": "(stereo partly drawn) [SAM, S-adenosyl-L-methionine]", "values": [
      {"measurement": "reactivity as TM0936 substrate", "value": "unable to catabolize; also recorded: inability to catabolize"}
    ]}
  ]
}
